Results from patent publication US8519139B2, “Indazolamides with analgesic activity” (Aziende Chimeche Riunite Angelini Francesco A.C.R.A.F. …, priority 2003, dated 2013).

Experiments:
[1] = test system: Mechanical hyperalgesia in rats with streptozotocin-induced diabetes (diabetic neuropathy); test: Mechanical hyperalgesia in rats with streptozotocin-induced diabetes; type: in vivo, rat; conditions: male CD rats, dose 10^-5 mol/kg, 2 h after treatment, vehicle 114 ± 2.7, normal animals 240±8.7 g
Method: 2. Mechanical Hyperalgesia in Rats with Streptozotocin-induced Diabetes
Male CD rats weighing 240-300 g on arrival were used.
The diabetic syndrome was induced by means of a single intraperitoneal (i.p.) injection of 80 mg/kg of streptozotocin dissolved in sterile physiological solution [Courteix C, Eschalier A, Lavarenne J. Streptozotocin-induced diabetic rats: behavioural evidence for a model of chronic pain. Pain, 1993; 53: 81-88; Bannon A W, Decker M W, Kim D J, Campbell J E, Arneric S P. ABT-594, a novel cholinergic channel modulator, is efficacious in nerve ligation and diabetic neuropathy models of neuropathic pain. Brain Res. 1998; 801:158-63].
At least three weeks after the injection of streptozotocin, rats with a level of glycemia≧300 mg/dl and with a response threshold to a mechanical nociceptive stimulus ≦120 g were selected. The glycemia levels were measured by means of a reflectometer, using reactive strips impregnated with glucose oxidase. The pain threshold was measured using an analgesimeter. By applying a gradual increase in pressure onto the dorsal area of the left hind paw of the rat, the instrument makes it possible to record the nocifensive response, expressed in grams, corresponding to the moment at which the animal retracts the paw.
Two hours after the treatment, the pain threshold measured in control animals was compared with that measured in animals treated with the test product (dose: 10^−5 mol/kg).
The control animals were treated with the same vehicle (water) used for administering the test products.

[2] = test system: CFA-induced mechanical hyperalgesia in rats; test: CFA-induced mechanical hyperalgesia in rats; type: in vivo, rat; conditions: male CD rats, dose 10^-5 mol/kg, test 23 hours after injecting the CFA, 1 h after treatment; vehicle 120 ± 6.1, normal animals 155±2.1 g
From the text: 1. CFA-induced Mechanical Hyperalgesia in Rats
Male CD rats weighing 150-200 g on arrival were used.
By means of an analgesimeter, rats with a response threshold to a mechanical nociceptive stimulus in the range from 150 to 180 g were selected. By applying a gradual increase in pressure onto the dorsal region of the left hind paw of the rat, the instrument makes it possible to record the nocifensive response, expressed in grams, corresponding to the moment at which the animal retracts the paw [Randall L O and Selitto J J. A method for the measurement of analgesic activity on inflamed tissue. Arch. Int. Pharmacodyn. Ther. 1957; 111: 409-419].
The hyperalgesia was induced by unilateral injection of 150 μl of “Complete Freund's Adjuvant” (CFA) into the surface of the left hind paw of the animal [Andrew D, Greenspan J D. Mechanical and heat sensitization of cutaneous nociceptors after peripheral inflammation in the rat. J Neurophysiol. 1999; 82(5): 2649-2656; Hargreaves K, Dubner R, Brown R, Flores C, Joris J. A new and sensitive method for measuring thermal nociception in cutaneous hyperalgesia. Pain 1988; 32: 77-88].
The test compounds were tested (dose: 10^−5 mol/kg) by performing the test 23 hours after injecting the CFA.
One hour after the treatment, the pain threshold measured in control animals was compared with that measured in animals treated with the test product. The control animals were treated with the same vehicle (water) used for administering the test products.

SMILES | Pain threshold (g) 2 h after the treatment [1] [g] | Pain threshold (g) 1 h after the treatment [2] [g]
CC(C)n1nc(C(=O)NCC2CCN(CC(=O)Nc3ccccc3)CC2)c2ccccc21.Cl [AF3R172, N3-((1-(2-oxo-2-(phenylamino)ethyl)-4-piperidyl)methyl)-1-(1-methylethyl)-1H-indazole-3-carboxamide hydrochloride] | 186 ± 13.0 | 175 ± 10.2
Cc1ccc(S(=O)(=O)O)cc1.O=C(CN1CCC(CNC(=O)c2n[nH]c3ccccc23)CC1)Nc1ccccc1 [AF3R276, N3-((1-(2-oxo-2-(phenylamino)ethyl)-4-piperidyl)methyl)-1H-indazole-3-carboxamide tosylate] | 210 ± 10.9 | 185 ± 15.9
Cl.O=C(CN1CCC(CNC(=O)c2nn(Cc3ccccc3)c3ccccc23)CC1)Nc1ccccc1 [AF3R277, N3-((1-(2-oxo-2-(phenylamino)ethyl)-4-piperidyl)methyl)-1-benzyl-1H-indazole-3-carboxamide hydrochloride] | 188 ± 11.0 | 170 ± 10.7
CC(C)n1nc(C(=O)NCC2CCN(CC(=O)Nc3ccc(O)cc3)CC2)c2ccccc21.Cl [AF3R278, N3-((1-(2-((4-hydroxyphenyl)amino)-2-oxoethyl)-4-piperidyl)methyl)-1-(1-methylethyl)-1H-indazole-3-arboxamide hydrochloride] | 240 ± 16.5 | 164 ± 10.2
CC(C)n1nc(C(=O)NCC2CCN(CC(=O)Nc3ccc(N)cc3)CC2)c2ccccc21.Cl.Cl [AF3R292, N3-((1-(2-oxo-2-((4-aminophenyl)amino)ethyl)-4-piperidyl)methyl)-1-(1-methylethyl)-1H-indazole-3-carboxamide dihydrochloride] | 202 ± 8.7 | 154 ± 11.5
Cc1ccc2[nH]nc(C(=O)NCC3CCN(CC(=O)Nc4ccccc4)CC3)c2c1.Cl [AF3R295, 5-methyl-N-3-((1-(2-oxo-2-(phenylamino)ethyl)-4-piperidyl)methyl)-1H-indazole-3-carboxamide hydrochloride] | 212 ± 14.6 | 202 ± 17.0
Cc1ccc2c(c1)c(C(=O)NCC1CCN(CC(=O)Nc3ccccc3)CC1)nn2C(C)C.Cl [AF3R299, 5-methyl-N-3-((1-(2-oxo-2-(phenylamino)ethyl)-4-piperidyl)methy 1)-1-(1-methylethyl)-1H-indazole-3-carboxamide hydrochloride] | 200 ± 10.7 | 167 ± 8.5
CC(C)n1nc(C(=O)NCC2CCN(CC(=O)Nc3ccc(N(C)C)cc3)CC2)c2ccccc21.Cl.Cl [AF3R301, N3-((1-(2-oxo-2-((4-(dimethylamino)phenyl)amino)ethyl)-4-piperidyl)methyl)-1-(1-methylethyl)-1H-indazole-3-carboxamide dihydrochloride] | 201 ± 13.8 | 151 ± 10.7
Cc1cccc(C)c1NC(=O)CN1CCC(CNC(=O)c2nn(C(C)C)c3ccccc23)CC1.O=C(O)C(=O)O [AF3R305, N3-((1-(2-oxo-2-((2,6-dimethylphenyl)amino)ethyl)-4-piperidyl)methyl)-1-(1-methylethyl)-1H-indazole-3-carboxamide oxalate] | 189 ± 9.2 | 174 ± 8.4
CC(C)n1nc(C(=O)NCC2CCN(CC(=O)Nc3ccc(OCc4ccccc4)cc3)CC2)c2ccccc21 [AF3R331, N3-((1-(2-oxo-2-((4-((phenylmethyl)oxy)phenyl)amino)ethyl)-4-piperidyl)methyl)-1-(1-methylethyl)-1H-indazole-3-carboxamide] | 192 ± 11.5 | 156 ± 8.7
CC(C)n1nc(C(=O)NCC2CCN(CC(=O)Nc3ccc([N+](=O)[O-])cc3)CC2)c2ccccc21 [AF3R335, N3-((1-(2-oxo-2-((4-nitrophenyl)amino)ethyl)-4-piperidyl)methyl)-1-(1-methylethyl)-1H-indazole-3-carboxamide] | 180 ± 13.0 | 168 ± 6.8
